Assay results as given in US20230026616A1, “PYRIMIDOIMIDAZOLE COMPOUNDS USED AS DNA-PK INHIBITORS” (MEDSHINE DISCOVERY INC., priority 2019, published 2023).
pIC50: −log10 of the molar value. Marks after values point to notes of the source that are not given here. Blank lines part the entries; values can stand above or below the compound they belong to.

Experiments:
[1] = Pharmacokinetic evaluation in mice (2), plasma; type: in vivo, Balb/c male mice
Description: (§1) IV: intravenous injection; PO: oral; C0: instantaneous […] concentration after intravenous injection; Cmax: highest plasma concentration after administration; Tmax: time required to reach peak of drug concentration after administration; T1/2: time required for the plasma drug concentration to decrease by half, Vdss: apparent volume of distribution, refers to the proportional constant of the drug dose in vivo and the blood drug concentration when the drug reaches a dynamic equilibrium in vivo. Cl: clearance rate, refers to the […] cleared from the body per unit time; Tlast: time at the last detection point; AUC0-last: area under the drug-time curve, refers to the area covered by the plasma concentration curve and the time axis; F: a measure of the speed and degree of drug absorption into the blood circulation, which is an important indicator for evaluating the degree of drug absorption.
(§2) Test compounds were mixed with 10 dimethyl sulfoxide/50% polyethylene glycol 200/40% water, vortexed and sonicated to prepare a nearly clear solution of 0.4 mg/mL (compound 5), then filtered through a microporous membrane for next step. Balb/c male mice of 18 to 20 grams were selected and administered intravenously with the candidate compound solution at a dose of 2 mg/kg. Test compounds were mixed with 10% dimethyl sulfoxide/50% polyethylene glycol 200/40% water, vortexed and sonicated to prepare a nearly clear solution of 1 mg/mL, then filtered with a microporous membrane for next step. Balb/c male mice of 18 to 20 grams were selected and orally administered with the candidate compound solution at a dose of 10 mg/kg. Whole blood was collected for a certain period of time, and plasma was prepared, then drug concentration was detected by LC-MS/MS method, and pharmacokinetic parameters were calculated by Phoenix WinNonlin software (Pharsight, USA).

Human DNA-PK = molecular target: T1, Human DNA-PK (Homo sapiens, UniProt P78527); experiment: DNA-dependent protein kinase (DNA-PK) inhibitory activity screening (Eurofins, HTRF); type: biochemical; details: ATP: 10 μM; read-out: DNA-PK kinase inhibition IC50
T1 construct: purchased Eurofins (Eurofins Pharma Discovery Service)
Procedure: Experimental Embodiment 1: DNA-Dependent Protein Kinase (DNA-PK) Inhibitory Activity Screening Experiment
This experiment was tested in the Eurofins
Human DNA-PK; Mg/ATP; GST-cMyc-p53; EDTA; Ser15 antibody; ATP: 10 μM.
Experimental Method (Eurofins Pharma Discovery Service):
DNA-PK (h) was incubated in assay buffer containing 50 nM GST-cMyc-p53 and Mg/ATP (according to the required concentration). The reaction was initiated by adding Mg/ATP mixture. After 30 minutes of incubation at room temperature, the reaction was stopped by adding a stop solution containing EDTA. Finally, detection buffer (containing labeled anti-GST monoclonal antibody and europium-labeled anti-Ser15 antibody against phosphorylated p53) was added. The plate was then read in time-resolved fluorescence mode, and the homogeneous time-resolved fluorescence (HTRF) signal was determined according to the formula HTRF=10000×(Em665 nm/Em620 nm).

[2] = Pharmacokinetic and brain exposure evaluation in rats; type: in vivo, SD male rats; details: for Vd: read-out: Vdss
Description: as §1
Test compounds were mixed with 10% dimethyl sulfoxide/50% polyethylene glycol 200/40% water, vortexed and sonicated to prepare a nearly clear solution of 0.5 mg/mL (compound 5) or 1 mg/mL (compound 17), then filtered through a microporous membrane for next step. SD male rats were selected and administered intravenously with the candidate compound solution at a dose of 1 mg/kg (compound 5) or 2 mg/kg (compound 17). Test compounds were mixed with 10% dimethyl sulfoxide/50% polyethylene glycol 200/40% water, vortexed and sonicated to prepare a homogeneous suspension of 4 mg/mL (compound 5) or a nearly clear solution of 1 mg/mL (compound 17). SD male rats were selected and orally administered with the candidate compound solution at a dose of 40 mg/kg (compound 5) or 10 mg/kg (compound 17). Whole blood, cerebrospinal fluid, brain tissue were collected for a certain period of time and plasma was prepared, and the drug concentration was detected by LC-MS/MS method, and the pharmacokinetic parameters were calculated by Phoenix WinNonlin software (Pharsight, USA).

[3] = Pharmacokinetic evaluation in Beagle dogs; type: in vivo, Male Beagle dogs; details: for Tlast / AUC(0-t) / C0 / clearance / half-life / Vd / Cmax / Tmax: Beagle dog plasma; for F: Beagle dog, PO 5 mpk vs IV 1 mpk; for AUC(0-t) / C0 / clearance / half-life / Vd / Cmax / Tmax: male; for Vd: read-out: Vdss
Description: as §1
as §2, with “mixed with 10% dimethyl sulfoxide/50%” for “mixed with 10 dimethyl sulfoxide/50%”, “solution of 1 mg/mL, then filtered” for “solution of 0.4 mg/mL (compound 5), then filtered”, “next step. Male Beagle dogs were selected” for “next step. Balb/c male mice of 18 to 20 grams were selected”, “dose of 1 mg/kg. Test” for “dose of 2 mg/kg. Test”, “dose of 5 mg/kg. Whole” for “dose of 10 mg/kg. Whole”

[4] = male, Balb/c, 2 mg/kg, mouse plasma, IV 2 mpk
[5] = male, Balb/c, 10 mg/kg, mouse plasma, PO 10 mpk
[6] = male, SD, 1 mg/kg, rat plasma, IV 1 mpk
[7] = male, SD, 40 mg/kg, rat, PO 40 mpk, Cerebrospinal fluid
[8] = male, SD, 40 mg/kg, rat, PO 40 mpk, Plasma
[9] = male, SD, 2 mg/kg, rat plasma, IV 2 mpk
[10] = male, SD, 10 mg/kg, rat plasma, PO 10 mpk

- AUC(0-t) [1, 4]: 3.45 µM·h
- C0 [1, 4]: 4.74 µM
- clearance [1, 4]: 23.7 mL/min/kg
- half-life [1, 4]: 0.733 h
- Vd ([1]; male, Balb/c, 2 mg/kg, mouse plasma, IV 2 mpk, read-out: Vdss): 1.07 L/kg
- AUC(0-t) [1, 5]: 23.2 µM·h
- Cmax [1, 5]: 11.4 µM
- Tmax [1, 5]: 0.5 h
- half-life [1, 5]: 0.85 h
- Tlast ([1]; mouse plasma, IV 2 mpk): 8 h
- Tlast ([1]; mouse plasma, PO 10 mpk): 10 h
- F ([1]; mouse, PO 10 mpk vs IV 2 mpk): 134%
- pIC50 (Human DNA-PK): 9.00
- AUC(0-t) [2, 6]: 2.38 µM·h
- C0 [2, 6]: 3.04 µM
- clearance [2, 6]: 17 mL/min/kg
- half-life [2, 6]: 1.45 h
- Vd [2, 6]: 1.41 L/kg
- Tmax ([2]; male, SD, 40 mg/kg, rat, PO 40 mpk, Brain tissue): 4 h
- AUC(0-t) [2, 7]: 7.74 µM·h
- Tmax [2, 7]: 2 h
- Cmax ([2]; male, SD, 40 mg/kg, rat, PO 40 mpk, Cerebrospinal fluid, read-out: Cmax): 1.26 µM
- AUC(0-t) [2, 8]: 59.9 µM·h
- Tmax [2, 8]: 2 h
- Cmax ([2]; male, SD, 40 mg/kg, rat, PO 40 mpk, Plasma, read-out: Cmax): 10.2 µM
- Tlast ([2]; rat plasma, IV 1 mpk): 8 h
- AUC0-last ([2]; rat, PO 40 mpk, Brain tissue): 6369^b h*nmol/kg
- Cmax ([2]; rat, PO 40 mpk, Brain tissue): 1019^a nmol/kg
- Tlast ([2]; rat, PO 40 mpk, Brain tissue): 8 h
- Tlast ([2]; rat, PO 40 mpk, Cerebrospinal fluid): 8 h
- Tlast ([2]; rat, PO 40 mpk, Plasma): 8 h
- Tlast ([3]; IV 1 mpk): 24 h
- Tlast ([3]; PO 5 mpk): 24 h
- F [3]: 279%
- AUC(0-t) ([3]; 1 mg/kg, IV 1 mpk): 4.96 µM·h
- C0 ([3]; 1 mg/kg, IV 1 mpk): 1.82 µM
- clearance ([3]; 1 mg/kg, IV 1 mpk): 8.26 mL/min/kg
- half-life ([3]; 1 mg/kg, IV 1 mpk): 4.04 h
- Vd ([3]; 1 mg/kg, IV 1 mpk): 1.87 L/kg
- AUC(0-t) ([3]; 5 mg/kg, PO 5 mpk): 68.3 µM·h
- Cmax ([3]; 5 mg/kg, PO 5 mpk): 9.27 µM
- Tmax ([3]; 5 mg/kg, PO 5 mpk): 1.67 h
- half-life ([3]; 5 mg/kg, PO 5 mpk): 4.27 h
Compound: Cc1cc2ncnn2cc1Nc1ncc2c(n1)n(N1CC3CCC(C1)O3)c(=O)n2C [Compound 5]

- pIC50 (Human DNA-PK): 9.30
- AUC(0-t) [2, 9]: 4.86 µM·h
- C0 [2, 9]: 5.3 µM
- clearance [2, 9]: 16.9 mL/min/kg
- half-life [2, 9]: 1.16 h
- Vd [2, 9]: 1.4 L/kg
- AUC(0-t) [2, 10]: 32.5 µM·h
- Tmax [2, 10]: 2 h
- half-life [2, 10]: 2.29 h
- Cmax ([2]; male, SD, 10 mg/kg, rat plasma, PO 10 mpk, read-out: Cmax): 6.25 µM
- Tlast ([2]; rat plasma, IV 2 mpk): 8 h
- Tlast ([2]; rat plasma, PO 10 mpk): 8 h
- Tlast ([3]; IV 1 mpk): 24 h
- Tlast ([3]; PO 5 mpk): 24 h
- F [3]: 92.3%
- AUC(0-t) ([3]; 1 mg/kg, IV 1 mpk): 6.82 µM·h
- C0 ([3]; 1 mg/kg, IV 1 mpk): 1.45 µM
- clearance ([3]; 1 mg/kg, IV 1 mpk): 5.89 mL/min/kg
- half-life ([3]; 1 mg/kg, IV 1 mpk): 5.04 h
- Vd ([3]; 1 mg/kg, IV 1 mpk): 1.58 L/kg
- AUC(0-t) ([3]; 5 mg/kg, PO 5 mpk): 31.5 µM·h
- Cmax ([3]; 5 mg/kg, PO 5 mpk): 4.94 µM
- Tmax ([3]; 5 mg/kg, PO 5 mpk): 1.5 h
- half-life ([3]; 5 mg/kg, PO 5 mpk): 4.27 h
Compound: Cc1cc2nncn2cc1Nc1ncc2c(n1)n(N1CC3CCC(C1)O3)c(=O)n2C [Compound 17]
